Results: patent US20150299250A1, “MACROCYCLIC COMPOUNDS AND USES THEREOF” (ADELAIDE RESEARCH & INNOVATION PTY LTD, priority 2012, published 2015)
Read-outs that look alike come from different tables or passages of the source. Where a SMILES comes first, the peptide text is derived from it. The star is where a group is joined. Cbz = O=C(OCc1ccccc1)*

Tests used:
[1] = system: primary human embryonic fibroblasts; assay: Cell viability assay (7AAD, 48 hours), normal fibroblasts; assay type: cell-based; details: Fibroblast, 48 hours exposure, read-out: Normal cell lines IC50 (μM) Fibroblasts
Procedure: (§1) Cell viability assays were performed as previously described. Briefly, cells were seeded in 96 well microtiterplates at a density of 3×10^4 cells per well in the presence of the indicated chemical. Cells were harvested 48 hours post-treatment, centrifuged at 1,300×g, washed in phosphate-buffered saline (PBS) and stained with 7AAD solution (2 μg/mL) (7-amino-actinomycin-D, Invitrogen, Carlsbad, Calif.) for 10 mins at room temperature. Viable cells were determined with the use of a FACS Calibur flow cytometer (Becton Dickinson Immunocytometry Systems), and analyzed with the use of FLOWJO (Tree Star, Inc) and GraphPad Prism (GraphPad Software Inc).
(§2) WE-68 and VH-64 Ewing's sarcoma cells were kindly supplied by F. van Valen (Department of Orthopaedic Surgery, Westfalische-Wilhelms-University, Germany).TC-252 and STA-ET-1 Ewing's sarcoma cells were kindly provided by G. Hamilton (Department of Surgery, University of Vienna, Austria) or P. Ambros (Children's Cancer Research Institute, St Anna Children's Hospital, Vienna, Austria). Primary human embryonic fibroblasts or primary human osteoblasts were collected from the Women's and Children's Hospital (North Adelaide, South Australia, Australia) or Royal Adelaide Hospital with patient consent. Mouse Embryonic Fibroblasts (MEFs) and its p53-null derivative were kindly supplied by Guillermina Lozano (Department of Genetics, Anderson Cancer Centre, University of Texas, Houston, Tex., USA). WE-68 cell lines were grown in RPMI-1640 media, whilst human embryonic fibroblasts and MEFs were grown in Dulbecco's Modified Eagle's Medium (DMEM). Media was supplemented with 10% FCS, 1% PSG and 10 mM HEPES. All cells were maintained at 37° C. in a humidified atmosphere of 5% CO2.

[2] = system: MEF p53+/+ (mouse embryonic fibroblasts); assay: Cell viability assay, MEF p53+/+; assay type: cell-based
Text: (§3) Although proteasome inhibitors have been translated from the bench to the clinic over the past decade, their specific mechanisms of action remain poorly understood. As discussed earlier, proteasomal over-activity in tumor cells has been attributed to aberrant degradation of numerous critical cancer-related pro proteins, including the pro-apoptotic tumor suppressor, p53. However, the role of p53 as a downstream mediator of cell death in response to proteasomal inhibition remains unclear. Therefore, we used our small library of CT-L specific proteasome inhibitors (compounds 1-6) to determine the role of p53 in their mechanism of cytotoxic action. For this purpose, we utilized mouse embryonic fibroblasts (MEFs) from transgenic p53^+/+ and p53^−/− littermates. This isogenic pair of cell lines are either competent (MEF p53^+/+) or deficient (MEF p53^−/−) in p53 protein and are used here to assess a potential role for p53 as a downstream inducer of cell death in response to proteasomal inhibition.
as §1, §2

[3] = system: primary human osteoblasts; assay: Cell viability assay (7AAD, 48 hours), normal osteoblasts; assay type: cell-based; details: Osteoblast, 48 hours exposure, read-out: Normal cell lines IC50 (μM) Osteoblasts
Procedure: as §1, §2

[4] = system: VH-64 Ewing's sarcoma cells; assay: Cell viability assay (7AAD, 48 hours), VH-64; assay type: cell-based; details: 48 hours exposure; read-out: Cancer cell lines IC50 (μM) VH-64
Procedure: as §1, §2

[5] = system: TC-252 Ewing's sarcoma cells; assay: Cell viability assay (7AAD, 48 hours), TC-252; assay type: cell-based; details: 48 hours exposure; read-out: Cancer cell lines IC50 (μM) TC-252
Procedure: as §1, §2

[6] = system: MEF p53-/- (mouse embryonic fibroblasts lacking p53); assay: Cell viability assay, MEF p53-/-; assay type: cell-based; details: for sensitivity of MEFs lacking p53 (p53-/-) to cytotoxic effects (in words): compared with p53+/+ MEFs
Text: as §3, §1
WE-68 and VH-64 Ewing's sarcoma cells were kindly supplied by F. van Valen (Department of Orthopaedic Surgery, Westfalische-Wilhelms-University, Germany).TC-252 and STA-ET-1 Ewing's sarcoma cells were kindly provided by G. Hamilton (Department of Surgery, University of Vienna, Austria) or P. Ambros (Children's Cancer Research Institute, St Anna Children's Hospital, Vienna, Austria). […]

[7] = target: T1, 20S proteasome T-L activity (Oryctolagus cuniculus, UniProt G1SWK8); assay: In vitro proteasome activity assay, T-L (Ac-RLR-AMC); assay type: biochemical, rabbit; details: purified 20S proteasome; highest concentration tested 25,000 nM
T1 construct: purchased Boston Biochem
T1 sequence (G1SWK8 1-271): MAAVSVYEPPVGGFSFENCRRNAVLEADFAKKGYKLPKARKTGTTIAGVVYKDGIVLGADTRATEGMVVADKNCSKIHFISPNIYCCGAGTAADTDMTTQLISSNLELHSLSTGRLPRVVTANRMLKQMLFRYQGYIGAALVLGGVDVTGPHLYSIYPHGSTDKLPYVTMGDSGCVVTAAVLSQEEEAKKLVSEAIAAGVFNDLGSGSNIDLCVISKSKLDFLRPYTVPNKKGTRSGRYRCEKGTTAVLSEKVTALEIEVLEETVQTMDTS
Procedure: The assays were performed in vitro using purified 20S proteasome/inhibitor mixtures, with the activity of each subunit of the proteasome assessed upon incubation with its respective target peptide.
Purified rabbit 20S proteasome and fluorogenic CT-L substrate (Suc-LLVY-AMC) were purchased from Boston Biochem (Cambridge, Mass., USA). The T-L and CP-L fluorogenic substrates (Ac-RLR-AMC and Z-nLPnLD-AMC) were purchased from Enzo Life Sciences (Farmingdale, N.Y., USA). The 20S proteasome was diluted to 0.2 μg/μL in 20S proteasome buffer (50 mM HEPES pH 7.6, 150 mM NaCl and 1 mM DDT) and stored at −80° C. Purified 20S proteasome (8 ng) was pre-incubated with the indicated concentrations of inhibitors for 15 minutes and subsequently added to the AMC-labeled substrate peptide (50 μM) in assay buffer (25 mM HEPES, pH 7.5, 0.5 mM EDTA, 0.05% NP-40, and 0.001% SDS (w/v)) at 37° C. for 2 hours.

[8] = system: p53 protein; assay: Western blot analysis of p53 protein expression in MEF p53+/+; assay type: cell-based, mouse; details: MEFs p53+/+, 16 hours treatment
Procedure: Dose-response curves are provided in Supplementary Figure S3. Compound 1 was not assayed using this system.
Western blot analyses were performed as previously described. Briefly, cells were harvested and lysed in 50 mM Tris-HCl (pH 7.5), 250 mM NaCl, 1 mM EDTA, 50 mM NaF, 0.5% TritonX-10, 0.5 mM Na3VO4 and 1× […] inhibitor (Roche, Indianapolis, Ind., USA). Lysates were incubated on ice for 8 minutes and sonicated using a Vibra-Cell VCX130 (Sonics & Materials, Inc) at 25% amplitude for 10 seconds. Protein concentrations were assayed with the bicinchoninic acid assay (Thermo Scientific, Massachusetts, USA) and subsequently resolved using a 10% SDS-PAGE gel. Proteins were transferred onto a nitrocellulose membrane (Hybond-C Extra, Amersham Biosciences), blocked (10% milk/TBST; 30 mins), hybridized with the appropriate primary or HRP-conjugated secondary antibody and subsequently visualized using Enhanced Chemiluminescence (Amersham Biosciences).
Antibodies used included a mouse anti-β-actin (Sigma), anti-p53 (1C12-mouse specific) (Cell Signalling, Danvers, Mass., USA), sheep anti-mouse IgG-HRP (Amersham Biosciences, Piscataway, N.J., USA), or donkey anti-rabbit IgG-HRP (Amersham Biosciences).

[9] = Mus musculus, Fibroblast; read-out: IC50 in MEF p53+/+

Row | Compound | IC50 [1] | IC50 [2, 9] | IC50 [3] | IC50 [4] | IC50 [5] | sensitivity of MEFs lacking p53 (p53-/-) to cytotoxic effects (in words) [6] | IC50 [7] | p53 protein levels [8] | MEF p53+/+ more sensitive compared to MEF p53-/- [2] | IC50 ([2]; Mus musculus, Fibroblast, read-out: IC50 in MEF p53+/+) | IC50 ([6]; Mus musculus, Fibroblast, read-out: IC50 in MEF p53-/-)
1 | C#CCOc1ccc(C[C@@H](C=O)NC(=O)[C@@H](NC(=O)[C@H](CCCCN=[N+]=[N-])NC(=O)OCc2ccccc2)[C@@H](C)CC)cc1 [Compound 5] | 19.9 µM | 2.7 to 10.3 µM | 4.8 µM | 1.1 µM | 0.42 µM | resistant | > 25000 nM | – | – | – | –
2 | C#CCOc1ccc(C[C@@H](C=O)NC(=O)[C@H](CC(C)C)NC(=O)[C@H](CCCN=[N+]=[N-])NC(=O)OCc2ccccc2)cc1 [Compound 3] | 8.8 µM | 2.7 to 10.3 µM | 18.8 µM | 2.1 µM | 1.2 µM | – | > 25000 nM | – | – | – | –
3 | C#CCOc1ccc(C[C@@H](C=O)NC(=O)[C@H](CC(C)C)NC(=O)[C@H](CCCCN=[N+]=[N-])NC(=O)OCc2ccccc2)cc1 [Compound 4] | 39.5 µM | 2.7 to 10.3 µM | 10.4 µM | 1.9 µM | 1.6 µM | – | > 25000 nM | – | – | – | –
4 | CC(C)C[C@@H](C=O)NC(=O)[C@H](CC(C)C)NC(=O)[C@H](CC(C)C)NC(=O)OCc1ccccc1 [MG132, reference compound] (Cbz-Leu-Leu-Leu-aldehyde) | 2.8 µM | – | 2.7 µM | 0.68 µM | 0.49 µM | – | 2000 nM | increase p53 protein levels | over 2 fold | 0.41 µM | 0.94 µM
5 | C#CCOc1ccc(C[C@@H](C=O)NC(=O)[C@H](CC(C)C)NC(=O)[C@H](Cc2ccc(N=[N+]=[N-])cc2)NC(=O)OCc2ccccc2)cc1 [Compound 6] | 45.4 µM | 2.7 to 10.3 µM | 11.6 µM | 1.9 µM | 0.64 µM | resistant | > 25000 nM | – | – | – | –
6 | C#CCOc1ccc(C[C@@H](C=O)NC(=O)[C@H](CC(C)C)NC(=O)[C@H](CCN=[N+]=[N-])NC(=O)OCc2ccccc2)cc1 [Compound 2] | 29.4 µM | 2.7 to 10.3 µM | 13.6 µM | 4.9 µM | 2.3 µM | – | > 25000 nM | – | – | – | –
